Results: the supplement of paper PMC10307832

These cell lines were tested with CCn1c(-c2nonc2N)nc2c(C#CC(C)(C)O)ncc(OC[C@H]3CCCNC3)c21 + Cc1cc(Nc2cc(N3CCN(C)CC3)nc(Sc3ccc(NC(=O)C4CC4)cc3)n2)n[nH]1 [Tozasertib] (partner 0.1 µM) (assay: relative viability (nuclei count vs DMSO), 5 days (fraction); higher = more cells survive). Settings: first compound 1 µM.
Outline: (§1)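 Relative viability was taken as the ratio of nuclei in treated wells to nuclei in vehicle wells. Lung cancer cell lines in 1536-well plates received compounds by pin tool one day after seeding, either one drug alone or a fixed anchor-drug dose plus five library-drug doses (not always all listed) in √10 steps. Nuclei were counted on 4× images after 5 days of treatment, and values are medians of duplicate plates.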
In the case of NCI-H2228, the relative viability is reported as 0.252.
NCI-H1355 showed a relative viability of 0.612.
NCI-H3122 gave a relative viability of 0.337.
In the case of NCI-H1437, the relative viability is reported as 0.432.
In the case of NCI-H1755, the relative viability is reported as 0.61.
With NCI-H2023 the relative viability was 0.343.
HCC-15 showed a relative viability of 0.384.
Cell Line NCI-H1793 has a relative viability of 0.35.
Cell Line PC-14 has a relative viability of 0.716.
In the case of EKVX, the relative viability is reported as 0.368.
LC-2-ad gave a relative viability of 0.451.
NCI-H1944 was tested, and the relative viability was 0.249.
Work on NCI-H1975 yielded a relative viability of 0.658.
Work on RERF-LC-KJ yielded a relative viability of 0.416.
ABC-1 gave a relative viability of 0.154.
For NCI-H358, the relative viability was 0.097.
Cell Line NCI-H650 has a relative viability of 0.694.
Work on PC-3 [JPC-3] yielded a relative viability of 0.859.

What follows are cell lines tested with CCOC1=CC=CC=C1N=NC2=C(NN(C2=O)C3=NC(=CS3)C4=CC=CC=C4)C [BAM7] + Cc1nc(Nc2ncc(C(=O)Nc3c(C)cccc3Cl)s2)cc(N2CCN(CCO)CC2)n1 [Dasatinib] (partner 0.075 µM) in the same assay as above. Settings: first compound 0.5 µM.
Outline: as §1
NCI-H441 showed a relative viability of 0.607.
Work on NCI-H661 yielded a relative viability of 0.991.
In the case of NCI-H1734, the relative viability is reported as 0.503.
In the case of NCI-H460, the relative viability is reported as 0.51.
NCI-H2347 gave a relative viability of 0.303.
SK-LU-1 gave a relative viability of 0.172.
NCI-H1395 was tested, and the relative viability was 0.41.
Cell Line 201T has a relative viability of 0.659.
Cell Line NCI-H1915 has a relative viability of 0.321.
With HCC-827 the relative viability was 0.29.
For LXF-289, the relative viability was 0.276.
NCI-H23 showed a relative viability of 0.892.
NCI-H647 was tested, and the relative viability was 0.175.
CAL-12T was tested, and the relative viability was 0.507.
NCI-H1651 showed a relative viability of 0.297.
Work on EPLC-272H yielded a relative viability of 0.369.
For NCI-H2228, the relative viability was 0.598.
NCI-H1355 was tested, and the relative viability was 0.572.
For NCI-H3122, the relative viability was 0.438.
With NCI-H1437 the relative viability was 0.561.
NCI-H1755 gave a relative viability of 0.432.
Work on NCI-H2023 yielded a relative viability of 0.519.
Work on HCC-15 yielded a relative viability of 0.594.
Cell Line NCI-H1793 has a relative viability of 0.375.
PC-14 gave a relative viability of 0.229.
Work on EKVX yielded a relative viability of 0.604.
In the case of LC-2-ad, the relative viability is reported as 0.8.
With NCI-H1944 the relative viability was 0.217.
For NCI-H1975, the relative viability was 0.309.
For RERF-LC-KJ, the relative viability was 0.639.
Cell Line ABC-1 has a relative viability of 0.675.
NCI-H358 gave a relative viability of 0.202.
In the case of NCI-H650, the relative viability is reported as 0.422.
PC-3 [JPC-3] was tested, and the relative viability was 1.04.

Same assay, conditions: first compound 5 µM
For NCI-H441, the relative viability was 0.583.
NCI-H661 was tested, and the relative viability was 0.965.
NCI-H1734 was tested, and the relative viability was 0.59.
NCI-H460 showed a relative viability of 0.622.
Work on NCI-H2347 yielded a relative viability of 0.345.
For SK-LU-1, the relative viability was 0.18.
With NCI-H1395 the relative viability was 0.445.
201T gave a relative viability of 0.56.
NCI-H1915 gave a relative viability of 0.327.
HCC-827 showed a relative viability of 0.234.
Work on LXF-289 yielded a relative viability of 0.235.
For NCI-H23, the relative viability was 0.813.
Cell Line NCI-H647 has a relative viability of 0.193.
CAL-12T gave a relative viability of 0.326.
In the case of NCI-H1651, the relative viability is reported as 0.372.
In the case of NCI-H2228, the relative viability is reported as 0.639.
With NCI-H1355 the relative viability was 0.61.
With NCI-H3122 the relative viability was 0.835.
With NCI-H1437 the relative viability was 0.574.
In the case of NCI-H1755, the relative viability is reported as 0.466.
Work on NCI-H2023 yielded a relative viability of 0.465.
Cell Line HCC-15 has a relative viability of 0.574.
Cell Line NCI-H1793 has a relative viability of 0.424.
With PC-14 the relative viability was 0.211.
In the case of EKVX, the relative viability is reported as 0.586.
With LC-2-ad the relative viability was 0.555.
Work on NCI-H1944 yielded a relative viability of 0.234.
Cell Line NCI-H1975 has a relative viability of 0.341.
Work on RERF-LC-KJ yielded a relative viability of 0.539.
Cell Line ABC-1 has a relative viability of 0.624.
NCI-H358 was tested, and the relative viability was 0.217.
Cell Line NCI-H650 has a relative viability of 0.49.
PC-3 [JPC-3] was tested, and the relative viability was 0.91.

Same assay, conditions: first compound 15.81 µM
Cell Line NCI-H441 has a relative viability of 0.71.
With NCI-H661 the relative viability was 0.759.
NCI-H1734 showed a relative viability of 0.491.
Work on NCI-H460 yielded a relative viability of 0.443.
For SK-LU-1, the relative viability was 0.191.
For NCI-H1395, the relative viability was 0.357.
201T gave a relative viability of 0.461.
Cell Line NCI-H1915 has a relative viability of 0.279.
In the case of HCC-827, the relative viability is reported as 0.313.
Cell Line LXF-289 has a relative viability of 0.256.
NCI-H23 gave a relative viability of 0.732.
With NCI-H647 the relative viability was 0.203.
CAL-12T showed a relative viability of 0.402.
For NCI-H1651, the relative viability was 0.477.
EPLC-272H was tested, and the relative viability was 0.346.
For NCI-H2228, the relative viability was 0.509.
Work on NCI-H1355 yielded a relative viability of 0.46.
In the case of NCI-H3122, the relative viability is reported as 0.838.
For NCI-H1437, the relative viability was 0.445.
Work on NCI-H1755 yielded a relative viability of 0.419.
NCI-H2023 was tested, and the relative viability was 0.393.
Cell Line HCC-15 has a relative viability of 0.617.
Cell Line NCI-H1793 has a relative viability of 0.431.
PC-14 was tested, and the relative viability was 0.228.
With EKVX the relative viability was 0.31.
LC-2-ad showed a relative viability of 0.546.
For NCI-H1944, the relative viability was 0.225.
In the case of NCI-H1975, the relative viability is reported as 0.3.
For RERF-LC-KJ, the relative viability was 0.323.
ABC-1 showed a relative viability of 0.496.
In the case of NCI-H358, the relative viability is reported as 0.197.
Work on NCI-H650 yielded a relative viability of 0.477.
Cell Line PC-3 [JPC-3] has a relative viability of 1.02.

Same assay, conditions: first compound 50 µM
Work on NCI-H441 yielded a relative viability of 0.724.
Cell Line NCI-H661 has a relative viability of 0.962.
In the case of NCI-H1734, the relative viability is reported as 0.53.
NCI-H460 was tested, and the relative viability was 0.691.
Work on NCI-H2347 yielded a relative viability of 0.339.
SK-LU-1 was tested, and the relative viability was 0.168.
For NCI-H1395, the relative viability was 0.465.
201T showed a relative viability of 0.497.
NCI-H1915 was tested, and the relative viability was 0.303.
For HCC-827, the relative viability was 0.264.
Work on LXF-289 yielded a relative viability of 0.253.
With NCI-H23 the relative viability was 0.868.
NCI-H647 showed a relative viability of 0.248.
In the case of CAL-12T, the relative viability is reported as 0.337.
NCI-H1651 gave a relative viability of 0.456.
Work on EPLC-272H yielded a relative viability of 0.434.
NCI-H2228 gave a relative viability of 0.521.
With NCI-H1355 the relative viability was 0.549.
NCI-H3122 was tested, and the relative viability was 0.725.
For NCI-H1437, the relative viability was 0.833.
With NCI-H1755 the relative viability was 0.458.
NCI-H2023 gave a relative viability of 0.481.
In the case of HCC-15, the relative viability is reported as 0.565.
With NCI-H1793 the relative viability was 0.388.
In the case of PC-14, the relative viability is reported as 0.295.
